MIC data for 17 compounds are collected here from US11279735B2, “Cyclic peptide antibiotics” (priority 2017, dated 2022).

Converted amounts (≈) assume the structure as drawn. Like-named read-outs stand apart in the source and are kept apart here. *1 amine or outer side, *2 acyl side, *3 side chain or, on linkers, in order; H or OH if unused. Where a SMILES comes first, the peptide text is derived from it. [ ]: non-standard residue; d: D form. The star is where a group is joined. X13 = C[C@H](CO[C@H](CC1CC2(CCC2)C1)[C@@H](C)C(=O)[*:2])N[*:1]; X19 = CCCC[C@@H](OC[C@@H](C)N[*:1])[C@@H](CC1CC1)C(=O)[*:2]; X6 = CCCCCC[C@@H](OC[C@@H](CC)N[*:1])[C@@H](C)C(=O)[*:2]; X1 = CCCCCC[C@@H](C(=O)[*:2])[C@@H](C)OC[C@@H](C)N[*:1]; X2 = CCCCCC[C@@H](OC[C@@H](C)N[*:1])[C@@H](C)C(=O)[*:2]; X9 = CCCCCC(C)[C@@H](OC[C@@H](C)N[*:1])C(C)C(=O)[*:2]; Cyclobutyl(trans-3-NH2) = N[C@H]1C[C@H](*)C1; Gly(cHept) = N[C@H](C(=O)O)C1CCCCCC1; aThr = C[C@H](O)[C@H](N)C(=O)O; NMeL = CN[C@@H](CC(C)C)C(=O)O; Chg = N[C@H](C(=O)O)C1CCCCC1; NMeNva = CCC[C@H](NC)C(=O)O; X8 = NC[C@H]1C[C@H](*)C1; Dap = NC[C@H](N)C(=O)O; Propyl(3-NH2) = NCCC*; X24 = NC[C@H](F)C*; X3 = NC[C@@H](F)C*; X10 = NCCCC*

This assay concerns Escherichia coli (E. coli) strain CFT073 ATCC 700928. The format is cell-based. The procedure, abridged:
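Broth microdilution MIC per CLSI M07-A8 in cation-adjusted Mueller Hinton II broth with 0.002% Tween-80. Ten-point 2-fold series topped at 64, 4, 0.5 or 0.13 μg/mL depending on protocol. Final inoculum OD600 0.0005, incubated 22 h at 35 °C.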

The mark [1] stands for this setting: E. coli CFT073 ATCC 700928, Mueller Hinton II cation adjusted Broth with 0.002% v/v Tween-80, 35° C. for 22 hours, lowest concentration that completely prevented bacterial growth.

Turning to `CCC[C@H]1C(=O)N[C@@H](C2CCCCCC2)C(=O)N[C@@H](CN)C(=O)N[C@@H](CO[C@H]2C[C@H](N)C2)C(=O)NCC(=O)O[C@H](CC2CC3CCC2C3)[C@@H](C)C(=O)N1C` (stereo partly drawn) [Example 141, (6S,9S,12S,15S,18R,19R)-6-[(3-aminocyclobutoxy)methyl]-9-(aminomethyl)-12-cycloheptyl-16,18-dimethyl-19-(norbornan-2-ylmethyl)-15-propyl-1-oxa-4,7,10,13,16-pentazacyclononadecane-2,5,8,11,14,17-hexone], for the setting “ATCC 700928, 22 h”, the MIC – broadly, the least concentration at which growth counts as inhibited – stood at 2.2 µM (≈ 1.67 µg/mL).
The same measure, in the same setting: as for `CCCCCC[C@H]1OC(=O)CNC(=O)[C@H]([C@H](C)O)NC(=O)[C@H](CN)NC(=O)[C@H](C2Cc3ccccc3C2)NC(=O)[C@H](CCC)N(C)C(=O)[C@@H]1C` [Example 142, (6S,9S,12S,15S,18R,19R)-9-(aminomethyl)-19-hexyl-12-indan-2-yl-16,18-dimethyl-15-propyl-6-[(1S)-1-hydroxyethyl]-1-oxa-4,7,10,13,16-pentazacyclononadecane-2,5,8,11,14,17-hexone], the figure is 8.8 µM (≈ 6.17 µg/mL); as for `CCCCCC[C@H]1OC(=O)CNC(=O)[C@H](CNC(=O)CN(C)C)NC(=O)[C@H](CN)NC(=O)[C@H](C2CCCCC2)NC(=O)[C@H](CC(C)C)N(C)C(=O)[C@@H]1C` [Example 143, 2-(dimethylamino)-N-[[(6S,9S,12S,15S,18R,19R)-9-(aminomethyl)-12-cyclohexyl-19-hexyl-15-isobutyl-16,18-dimethyl-2,5,8,11,14,17-hexaoxo-1-oxa-4,7,10,13,16-pentazacyclononadec-6-yl]methyl]acetamide], 25 µM (≈ 18.8 µg/mL); as for `CCCCCC[C@H]1OC[C@@H](CC)NC(=O)[C@H]([C@H](C)O)NC(=O)[C@H](CN)NC(=O)[C@H](C2CCCCC2)NC(=O)[C@H](CC(C)C)N(C)C(=O)[C@@H]1C` [Example 144, (3R,6S,9S,12S,15S,18R,19R)-9-(aminomethyl)-12-cyclohexyl-3-ethyl-19-hexyl-15-isobutyl-16,18-dimethyl-6-[(1S)-1-hydroxyethyl]-1-oxa-4,7,10,13,16-pentazacyclononadecane-5,8,11,14,17-pentone] (cyclo([Chg][Dap][aThr][X6][NMeL])), 2.2 µM (≈ 1.53 µg/mL).
On to `CCCCCC[C@H]1OC(=O)CNC(=O)[C@H](CNC(=O)CCN)NC(=O)[C@H](CN)NC(=O)[C@H](C2CCCCC2)NC(=O)[C@H](CC(C)C)N(C)C(=O)[C@@H]1C` [Example 145, 3-amino-N-[[(6S,9S,12S,15S,18R,19R)-9-(aminomethyl)-12-cyclohexyl-19-hexyl-15-isobutyl-16,18-dimethyl-2,5,8,11,14,17-hexaoxo-1-oxa-4,7,10,13,16-pentazacyclononadec-6-yl]methyl]propanamide], for which, where the note is “ATCC 700928, 22 h”, the MIC amounted to 12 µM (≈ 8.84 µg/mL).
As to `CCCCCC[C@H]1OC[C@@H](C)NC(=O)[C@H](CO[C@H]2C[C@H](N)C2)NC(=O)[C@H](CN)NC(=O)[C@H](C2CCCCCC2)NC(=O)[C@H](CCC)N(C)C(=O)[C@@H]1C` [Example 146, (3R,6S,9S,12S,15S,18R,19R)-6-[(3-aminocyclobutoxy)methyl]-9-(aminomethyl)-12-cycloheptyl-19-hexyl-3,16,18-trimethyl-15-propyl-1-oxa-4,7,10,13,16-pentazacyclononadecane-5,8,11,14,17-pentone] (cyclo([Dap]S(Cyclobutyl(trans-3-NH2))[X2][NMeNva][Gly(cHept)])), for the setting “ATCC 700928, 22 h”, the MIC was 6.3 µM (≈ 4.64 µg/mL).
Still for that read-out and setting: for `CCCC[C@H]1OC[C@@H](C)NC(=O)[C@H]([C@H](C)O)NC(=O)[C@H](CN)NC(=O)[C@H](C2CCCCC2)NC(=O)[C@H](CCC)N(C)C(=O)[C@@H]1CC1CC1` [Example 147, (3R,6S,9S,12S,15S,18R,19R)-9-(Aminomethyl)-19-butyl-12-cyclohexyl-18-(cyclopropylmethyl)-6-((S)-1-hydroxyethyl)-3,16-dimethyl-15-propyl-1-oxa-4,7,10,13,16-pentaazacyclononadecane-5,8,11,14,17-pentaone] (cyclo([Chg][Dap][aThr][X19][NMeNva])) the value was 12 µM (≈ 8.15 µg/mL); for `CCCCCC[C@H]1OC[C@@H](C)NC(=O)[C@H]([C@H](C)O)NC(=O)[C@H](CN)NC(=O)[C@H](C2CCN(c3ccccc3)CC2)NC(=O)[C@H](CC(C)C)N(C)C(=O)[C@@H]1C` [Example 148, (3R,6S,9S,12S,15S,18R,19R)-9-(Aminomethyl)-19-hexyl-6-((S)-1-hydroxyethyl)-15-isobutyl-3,16,18-trimethyl-12-(1-phenylpiperidin-4-yl)-1-oxa-4,7,10,13,16-pentaazacyclononadecane-5,8,11,14,17-pentaone], 8.8 µM (≈ 6.67 µg/mL); for `CCCCCC[C@H]1OC[C@@H](C)NC(=O)[C@H](CO[C@H]2C[C@H](CN)C2)NC(=O)[C@H](CN)NC(=O)[C@H](C2CCCCC2)NC(=O)[C@H](CC(C)C)N(C)C(=O)[C@@H]1C` [Example 149, (3R,6S,9S,12S,15S,18R,19R)-9-(Aminomethyl)-6-(((1r,3,S)-3-(aminomethyl)cyclobutoxy)methyl)-12-cyclohexyl-19-hexyl-15-isobutyl-3,16,18-trimethyl-1-oxa-4,7,10,13,16-pentaazacyclononadecane-5,8,11,14,17-pentaone] (cyclo([Chg][Dap]S(X8)[X2][NMeL])), 8.8 µM (≈ 6.6 µg/mL).
Same read-out and setting: for `CCCCCC[C@H]1C(=O)N(C)[C@@H](CCC)C(=O)N[C@@H](C2CCCCC2)C(=O)N[C@@H](CN)C(=O)N[C@@H]([C@H](C)O)C(=O)N[C@H](C)CO[C@@H]1C` [Example 150, (3R,6S,9S,12S,15S,18R,19R)-9-(Aminomethyl)-12-cyclohexyl-18-hexyl-6-((S)-1-hydroxyethyl)-3,16,19-trimethyl-15-propyl-1-oxa-4,7,10,13,16-pentaazacyclononadecane-5,8,11,14,17-pentaone] (cyclo([Chg][Dap][aThr][X1][NMeNva])) the value was 25 µM (≈ 16.7 µg/mL); for `CCCCCC[C@H]1OC[C@@H](C)NC(=O)[C@H](CN)NC(=O)[C@H](CN)NC(=O)[C@H](C2CCCCCC2)NC(=O)[C@H](CC(C)C)N(C)C(=O)[C@@H]1C` [Example 151, (3R,6S,9S,12S,15S,18R,19R)-6,9-Bis(aminomethyl)-12-cycloheptyl-19-hexyl-15-isobutyl-3,16,18-trimethyl-1-oxa-4,7,10,13,16-pentazacyclononadecane-5,8,11,14,17-pentone] (cyclo([Dap][Dap][X2][NMeL][Gly(cHept)])), 6.3 µM (≈ 4.28 µg/mL); for `CCCCCC[C@H]1OC[C@@H](C)NC(=O)[C@H](COCCCCN)NC(=O)[C@H](CN)NC(=O)[C@H](C2CCCCCC2)NC(=O)[C@H](CCC)N(C)C(=O)[C@@H]1C` [Example 152, (3R,6S,9S,12S,15S,18R,19R)-6-((4-Aminobutoxy)methyl)-9-(aminomethyl)-12-cycloheptyl-19-hexyl-3,16,18-trimethyl-15-propyl-1-oxa-4,7,10,13,16-pentaazacyclononadecane-5,8,11,14,17-pentaone] (cyclo([Dap]S(X10)[X2][NMeNva][Gly(cHept)])), 6.3 µM (≈ 4.65 µg/mL).
On the same count and under the same terms, for `CCCCCC(C)[C@H]1OC[C@@H](C)NC(=O)[C@H]([C@H](C)O)NC(=O)[C@H](CN)NC(=O)[C@H](C2CCCCC2)NC(=O)[C@H](CC(C)C)N(C)C(=O)C1C` (stereo partly drawn) [Example 153, (3R,6S,9S,12S,15S,18R,19R)-9-(Aminomethyl)-12-cyclohexyl-19-(heptan-2-yl)-6-((S)-1-hydroxyethyl)-15-isobutyl-3,16,18-trimethyl-1-oxa-4,7,10,13,16-pentaazacyclononadecane-5,8,11,14,17-pentaone] (cyclo([Chg][Dap][aThr][X9][NMeL])) the value was 1.6 µM (≈ 1.11 µg/mL).
Compound `CCCCCC[C@H]1OC[C@@H](C)NC(=O)[C@H](COC[C@H](F)CN)NC(=O)[C@H](CN)NC(=O)[C@H](C2CCCCC2)NC(=O)[C@H](CC(C)C)N(C)C(=O)[C@@H]1C` [Example 154, (3R,6S,9S,12S,15S,18R,19R)-6-(((R)-3-Amino-2-fluoropropoxy)methyl)-9-(aminomethyl)-12-cyclohexyl-19-hexyl-15-isobutyl-3,16,18-trimethyl-1-oxa-4,7,10,13,16-pentaazacyclononadecane-5,8,11,14,17-pentaone] (cyclo([Chg][Dap]S(X3)[X2][NMeL])) showed an MIC under setting [1] of 12 µM (≈ 8.9 µg/mL).
Under “ATCC 700928, 22 h”, `CCC[C@H]1C(=O)N[C@@H](C2CCCCC2)C(=O)N[C@@H](CN)C(=O)N[C@@H]([C@H](C)O)C(=O)N[C@H](C)CO[C@H](CC2CC3(CCC3)C2)[C@@H](C)C(=O)N1C` [Example 156, (3R,6S,9S,12S,15S,18R,19R)-9-(Aminomethyl)-12-cyclohexyl-6-((S)-1-hydroxyethyl)-3,16,18-trimethyl-15-propyl-19-(spiro[3.3]heptan-2-ylmethyl)-1-oxa-4,7,10,13,16-pcntaazacyclononadecane-5,8,11,14,17-pentaone] (cyclo([Chg][Dap][aThr][X13][NMeNva])) registered an MIC of 2.2 µM (≈ 1.52 µg/mL).
`CCC[C@H]1C(=O)N[C@@H](C2CCCCC2)C(=O)N[C@@H](CN)C(=O)N[C@@H](COCCCN)C(=O)N[C@H](C)CO[C@H](CC2CC3(CCC3)C2)[C@@H](C)C(=O)N1C` [Example 157, (3R,6S,9S,12S,15S,18R,19R)-9-(Aminomethyl)-6-((3-aminopropoxy)methyl)-12-cyclohexyl-3,16,18-trimethyl-15-propyl-19-(spiro[3.3]heptan-2-ylmethyl)-1-oxa-4,7,10,13,16-pentaazacyclononadecane-5,8,11,14,17-pentaone] (cyclo([Chg][Dap]S(Propyl(3-NH2))[X13][NMeNva])): under “ATCC 700928, 22 h”, the MIC worked out at 12 µM (≈ 8.81 µg/mL).
Under setting [1], `CCCCCC[C@H]1OC[C@@H](C)NC(=O)[C@H](COC[C@@H](F)CN)NC(=O)[C@H](CN)NC(=O)[C@H](C2CCCCC2)NC(=O)[C@H](CC(C)C)N(C)C(=O)[C@@H]1C` [Example 158, (3R,6S,9S,12S,15S,18R,19R)-6-(((S)-3-Amino-2-fluoropropoxy)methyl)-9-(aminomethyl)-12-cyclohexyl-19-hexyl-15-isobutyl-3,16,18-trimethyl-1-oxa-4,7,10,13,16-pentaazacyclononadecane-5,8,11,14,17-pentaone] (cyclo([Chg][Dap]S(X24)[X2][NMeL])) returned an MIC of 12 µM (≈ 8.9 µg/mL).
